pEC50: −log10 of the molar value.

The subject of the first assay is recombinant NL4-3 virus (Renilla luciferase in nef, Gag P373S; NLRluc) in MT-2 cells. The assay is described as follows: whole plant or invertebrate. Conditions: Renilla, NL43, luciferase activity in cells infected for 4-5 days with NLRluc recombinants, serial dilutions of inhibitor; class symbols (key in Table 1); read-out: EC50. In kind it is cell-based, HIV. As to the method: MT-2 cells and 293T cells were obtained from the NIH AIDS Research and Reference Reagent Program. MT-2 cells were propagated in RPMI 1640 media supplemented with 10% heat inactivated fetal bovine serum, […]. The 293T cells were propagated in DMEM media supplemented with 10% heat inactivated fetal bovine serum (FBS), 100 units/ml penicillin G and 100 μg/ml streptomycin. The proviral DNA clone of NL4-3 was obtained from the NIH AIDS Research and Reference Reagent Program. A recombinant NL4-3 virus, in which a section of the nef gene from NL4-3 was replaced with the Renilla luciferase gene, was used as a reference virus. In addition, residue Gag P373 was converted to P373S. Briefly, the recombinant virus was prepared by transfection of the altered proviral clone of NL4-3. Transfections were performed in 293T cells using LipofectAMINE PLUS from Invitrogen (Carlsbad, Calif.), according to manufacturer's instruction. The virus was titered in MT-2 cells using luciferase enzyme activity as a marker. Luciferase was quantitated using the Dual Luciferase kit from Promega (Madison, Wis.), with modifications to the manufacturer's protocol. The diluted Passive Lysis solution was pre-mixed with the re-suspended Luciferase Assay Reagent and the re-suspended Stop & Glo Substrate (2:1:1 ratio). Fifty (50) μL of the mixture was added to each aspirated well on assay plates and luciferase activity was measured immediately on a Wallac TriLux (Perkin-Elmer). Antiviral activities of inhibitors toward the recombinant virus were quantified by measuring luciferase activity in cells infected for 4-5 days with NLRluc recombinants in the presence serial dilutions of the inhibitor. Table 1 is the key for the data in Table 2.
For the compound `C=C(C)[C@@H]1CC[C@]2(NC(=O)NCCCN(C)C)CC[C@]3(C)[C@H](CC[C@@H]4[C@@]5(C)CC=C(c6ccc(C(=O)O)cc6)C(C)(C)[C@@H]5CC[C@]43C)[C@@H]12` [Example 10, 4-((1R,3aS,5aR,5bR,7aR,11aS,11bR,13aR,13bR)-3a-(3-(3-(dimethylamino)propyl)ureido)-5a,5b,8,8,11a-pentamethyl-1-(prop-1-en-2-yl)-2,3,3a,4,5,5a,5b,6,7,7a,8,11,11a,11b,12,13,13a,13b-octadecahydro-1H-cyclopenta[a]chrysen-9-yl)benzoic acid], the pEC50 is above 7.00.

`C=C(C)[C@@H]1CC[C@]2(NC(=O)NCCCN3CCOCC3)CC[C@]3(C)[C@H](CC[C@@H]4[C@@]5(C)CC=C(c6ccc(C(=O)O)cc6)C(C)(C)[C@@H]5CC[C@]43C)[C@@H]12` [Example 11, 4-((1R,3aS,5aR,5bR,7aR,11aS,11bR,13aR,13bR)-5a,5b,8,8,11a-pentamethyl-3a-(3-(3-morpholinopropyl)ureido)-1-(prop-1-en-2-yl)-2,3,3a,4,5,5a,5b,6,7,7a,8,11,11a,11b,12,13,13a,13b-octadecahydro-1H-cyclopenta[a]chrysen-9-yl)benzoic acid]: the pEC50 is above 7.00.

In the case of `C=C(C)[C@@H]1CC[C@]2(NC(=O)NCCCn3ccnc3C)CC[C@]3(C)[C@H](CC[C@@H]4[C@@]5(C)CC=C(c6ccc(C(=O)O)cc6)C(C)(C)[C@@H]5CC[C@]43C)[C@@H]12` [Example 12, 4-((1R,3aS,5aR,5bR,7aR,11aS,11bR,13aR,13bR)-5a,5b,8,8,11a-pentamethyl-3a-(3-(3-(2-methyl-1H-imidazol-1-yl)propyl)ureido)-1-(prop-1-en-2-yl)-2,3,3a,4,5,5a,5b,6,7,7a,8,11,11a,11b,12,13,13a,13b-octadecahydro-1H-cyclopenta[a]chrysen-9-yl)benzoic acid], the pEC50 was above 7.00.

Take `C=C(C)[C@@H]1CC[C@]2(NC(=O)NCCc3c[nH]cn3)CC[C@]3(C)[C@H](CC[C@@H]4[C@@]5(C)CC=C(c6ccc(C(=O)O)cc6)C(C)(C)[C@@H]5CC[C@]43C)[C@@H]12` [Example 13, 4-((1R,3aS,5aR,5bR,7aR,11aS,11bR,13aR,13bR)-3a-(3-(2-(1H-imidazol-4-yl)ethyl)ureido)-5a,5b,8,8,11a-pentamethyl-1-(prop-1-en-2-yl)-2,3,3a,4,5,5a,5b,6,7,7a,8,11,11a,11b,12,13,13a,13b-octadecahydro-1H-cyclopenta[a]chrysen-9-yl)benzoic acid]: the pEC50 was above 7.00.

Take `C=C(C)[C@@H]1CC[C@]2(NC(=O)NCCCn3ccnc3)CC[C@]3(C)[C@H](CC[C@@H]4[C@@]5(C)CC=C(c6ccc(C(=O)O)cc6)C(C)(C)[C@@H]5CC[C@]43C)[C@@H]12` [Example 14, 4-((1R,3aS,5aR,5bR,7aR,11aS,11bR,13aR,13bR)-3a-(3-(3-(1H-imidazol-1-yl)propyl)ureido)-5a,5b,8,8,11a-pentamethyl-1-(prop-1-en-2-yl)-2,3,3a,4,5,5a,5b,6,7,7a,8,11,11a,11b,12,13,13a,13b-octadecahydro-1H-cyclopenta[a]chrysen-9-yl)benzoic acid]: the pEC50 is above 7.00.

In the case of `C=C(C)[C@@H]1CC[C@]2(NC(=O)N3CCCCC3)CC[C@]3(C)[C@H](CC[C@@H]4[C@@]5(C)CC=C(c6ccc(C(=O)O)cc6)C(C)(C)[C@@H]5CC[C@]43C)[C@@H]12` [Example 15, 4-((1R,3aS,5aR,5bR,7aR,11aS,11bR,13aR,13bR)-5a,5b,8,8,11a-pentamethyl-3a-(piperidine-1-carboxamido)-1-(prop-1-en-2-yl)-2,3,3a,4,5,5a,5b,6,7,7a,8,11,11a,11b,12,13,13a,13b-octadecahydro-1H-cyclopenta[a]chrysen-9-yl)benzoic acid], the pEC50 was above 7.00.

On to `C=C(C)[C@@H]1CC[C@]2(NC(=O)NCC(=O)O)CC[C@]3(C)[C@H](CC[C@@H]4[C@@]5(C)CC=C(c6ccc(C(=O)O)cc6)C(C)(C)[C@@H]5CC[C@]43C)[C@@H]12` [Example 16, 4-((1R,3aS,5aR,5bR,7aR,11aS,11bR,13aR,13bR)-3a-(3-(carboxymethyl)ureido)-5a,5b,8,8,11a-pentamethyl-1-(prop-1-en-2-yl)-2,3,3a,4,5,5a,5b,6,7,7a,8,11,11a,11b,12,13,13a,13b-octadecahydro-1H-cyclopenta[a]chrysen-9-yl)benzoic acid], for which the pEC50 is above 7.00.

On to `C=C(C)[C@@H]1CC[C@]2(NC(=O)N[C@@H](C)C(=O)O)CC[C@]3(C)[C@H](CC[C@@H]4[C@@]5(C)CC=C(c6ccc(C(=O)O)cc6)C(C)(C)[C@@H]5CC[C@]43C)[C@@H]12` [Example 17, 4-((1R,3aS,5aR,5bR,7aR,11aS,11bR,13aR,13bR)-3a-(3-((S)-1-carboxyethyl)ureido)-5a,5b,8,8,11a-pentamethyl-1-(prop-1-en-2-yl)-2,3,3a,4,5,5a,5b,6,7,7a,8,11,11a,11b,12,13,13a,13b-octadecahydro-1H-cyclopenta[a]chrysen-9-yl)benzoic acid], for which the pEC50 was above 7.00.

`C=C(C)[C@@H]1CC[C@]2(NC(=O)N[C@H](C)C(=O)O)CC[C@]3(C)[C@H](CC[C@@H]4[C@@]5(C)CC=C(c6ccc(C(=O)O)cc6)C(C)(C)[C@@H]5CC[C@]43C)[C@@H]12` [Example 19, 4-((1R,3aS,5aR,5bR,7aR,11aS,11bR,13aR,13bR)-3a-(3-((R)-1-carboxyethyl)ureido)-5a,5b,8,8,11a-pentamethyl-1-(prop-1-en-2-yl)-2,3,3a,4,5,5a,5b,6,7,7a,8,11,11a,11b,12,13,13a,13b-octadecahydro-1H-cyclopenta[a]chrysen-9-yl)benzoic acid]: the pEC50 is above 7.00.

As to `C=C(C)[C@@H]1CC[C@]2(NC(=O)NCCN3CCS(=O)(=O)CC3)CC[C@]3(C)[C@H](CC[C@@H]4[C@@]5(C)CC=C(c6ccc(C(=O)O)cc6)C(C)(C)[C@@H]5CC[C@]43C)[C@@H]12` [Example 21, 4-((1R,3aS,5aR,5bR,7aR,11aS,11bR,13aR,13bR)-3a-(((2-(1,1-dioxido-4-thiomorpholinyl)ethyl)carbamoyl)amino)-1-isopropenyl-5a,5b,8,8,11a-pentamethyl-2,3,3a,4,5,5a,5b,6,7,7a,8,11,11a,11b,12,13,13a,13b-octadecahydro-1H-cyclopenta[a]chrysen-9-yl)benzoic acid], the pEC50 was above 7.00.

For `C=C(C)[C@@H]1CC[C@]2(NC(=O)NCCCN3CCS(=O)(=O)CC3)CC[C@]3(C)[C@H](CC[C@@H]4[C@@]5(C)CC=C(c6ccc(C(=O)O)cc6)C(C)(C)[C@@H]5CC[C@]43C)[C@@H]12` [Example 22, 4-((1R,3aS,5aR,5bR,7aR,11aS,11bR,13aR,13bR)-3a-(((3-(1,1-dioxido-4-thiomorpholinyl)propyl)carbamoyl)amino)-1-isopropenyl-5a,5b,8,8,11a-pentamethyl-2,3,3a,4,5,5a,5b,6,7,7a,8,11,11a,11b,12,13,13a,13b-octadecahydro-1H-cyclopenta[a]chrysen-9-yl)benzoic acid], the pEC50 was above 7.00.

Still in this assay, the particulars now being: Renilla, NL43, luciferase activity in cells infected for 4-5 days with NLRluc recombinants, serial dilutions of inhibitor; numeric values; read-out: EC50.
In the case of `C=C(C)[C@@H]1CC[C@]2(NC(=O)N3CCN([C@@H]4COC[C@H]4N(C)C)CC3)CC[C@]3(C)[C@H](CC[C@@H]4[C@@]5(C)CC=C(c6ccc(C(=O)O)cc6)C(C)(C)[C@@H]5CC[C@]43C)[C@@H]12` [Example 9, 4-((1R,3aS,5aR,5bR,7aR,11aS,11bR,13aR,13bR)-3a-(4-((3S,4S)-4-(dimethylamino)tetrahydrofuran-3-yl)piperazine-1-carboxamido)-5a,5b,8,8,11a-pentamethyl-1-(prop-1-en-2-yl)-2,3,3a,4,5,5a,5b,6,7,7a,8,11,11a,11b,12,13,13a,13b-octadecahydro-1H-cyclopenta[a]chrysen-9-yl)benzoic acid], the pEC50 was 8.52.

Consider `C=C(C)[C@@H]1CC[C@]2(NC(=O)N[C@@H](CO)C(=O)O)CC[C@]3(C)[C@H](CC[C@@H]4[C@@]5(C)CC=C(c6ccc(C(=O)O)cc6)C(C)(C)[C@@H]5CC[C@]43C)[C@@H]12` [Example 18, 4-((1R,3aS,5aR,5bR,7aR,11aS,11bR,13aR,13bR)-3a-(3-((S)-1-carboxy-2-hydroxyethyl)ureido)-5a,5b,8,8,11a-pentamethyl-1-(prop-1-en-2-yl)-2,3,3a,4,5,5a,5b,6,7,7a,8,11,11a,11b,12,13,13a,13b-octadecahydro-1H-cyclopenta[a]chrysen-9-yl)benzoic acid], for which the pEC50 was 6.60.

On to `C=C(C)[C@@H]1CC[C@]2(NC(=O)N[C@H](CO)C(=O)O)CC[C@]3(C)[C@H](CC[C@@H]4[C@@]5(C)CC=C(c6ccc(C(=O)O)cc6)C(C)(C)[C@@H]5CC[C@]43C)[C@@H]12` [Example 20, 4-((1R,3aS,5aR,5bR,7aR,11aS,11bR,13aR,13bR)-3a-(3-((R)-1-carboxy-2-hydroxyethyl)ureido)-5a,5b,8,8,11a-pentamethyl-1-(prop-1-en-2-yl)-2,3,3a,4,5,5a,5b,6,7,7a,8,11,11a,11b,12,13,13a,13b-octadecahydro-1H-cyclopenta[a]chrysen-9-yl)benzoic acid], for which the pEC50 was 6.40.

Source of the values: patent publication US20140343000A1 (priority 2011, published 2014).
